test system: halo-ERα; assay: ERα cellular stability, live-cell halo-ERα assay in T47D breast cancer cells; assay type: cell-based; conditions: 0 to 10 μM, 24 hours
Method: T47D breast cancer cell lines were generated with stable Tet-ON wild type (WT), Y537S mutation, or D538G halo-ERα mutation and enriched through flow sorting. Cells were cultured for 48 hours in media supplemented with charcoal-stripped fetal bovine serum (FBS) in puromycin. Subsequently, 1 μg/mL doxycycline was added to induce expression and 1 μM G618 antibody was added to follow the expression of the halo-tagged proteins. Cells were then treated with increasing concentrations of a compound of interest between 0 and 10 μM for 24 hours. After treatment, cells were imaged using an INUCYTE™ S3 (Essen BioScience, Ann Arbor, MI). ERα degradation was quantified by using the red channel integrated intensity per image normalized to phase channel confluence area.
Tissue specific activities often correlate with a molecule's influence on ERα levels.

Row | Structure (SMILES) | influence on ERα levels (SERM-like / SERD-like profile)
1 | CCN1CC(Oc2ccc(C3c4ccc(O)cc4CC4(CC4)N3C(=O)c3ccccc3)cc2)C1 (stereo not drawn) [Compound 1] | weak SERD-like profile

target: T1, ERα (Homo sapiens, UniProt P03372); assay: Transcriptional reporter gene assay (estrogen response element-GFP) in MCF7 cells; assay type: cell-based; conditions: ERE-controlled green fluorescent protein, reduction in fluorescence
T1 construct: endogenous in cells; host or cells: MCF7
T1 sequence (P03372 1-595): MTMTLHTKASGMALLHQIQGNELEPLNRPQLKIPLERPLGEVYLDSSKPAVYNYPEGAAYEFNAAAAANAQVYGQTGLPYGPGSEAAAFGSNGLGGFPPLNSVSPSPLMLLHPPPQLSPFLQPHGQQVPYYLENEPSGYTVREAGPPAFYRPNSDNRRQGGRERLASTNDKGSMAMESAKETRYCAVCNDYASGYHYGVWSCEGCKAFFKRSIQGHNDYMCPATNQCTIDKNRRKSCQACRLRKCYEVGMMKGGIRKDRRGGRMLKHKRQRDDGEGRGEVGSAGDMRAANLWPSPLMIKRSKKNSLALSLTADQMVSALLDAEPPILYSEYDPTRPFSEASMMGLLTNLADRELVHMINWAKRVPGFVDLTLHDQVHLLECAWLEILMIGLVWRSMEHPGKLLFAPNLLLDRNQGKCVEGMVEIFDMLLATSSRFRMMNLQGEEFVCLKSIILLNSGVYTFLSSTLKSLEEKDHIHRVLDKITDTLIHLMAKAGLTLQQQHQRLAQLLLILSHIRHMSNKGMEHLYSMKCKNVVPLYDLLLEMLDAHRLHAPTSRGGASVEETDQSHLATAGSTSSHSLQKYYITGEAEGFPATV
Method: The reduction in fluorescence was measured and the IC50 value (nM) was determined for various compounds of formula (I) in comparison to known antagonists.

Row | IC50 | Structure (SMILES)
2 | 19 nM | CCCN1CCC(COc2ccc(C3c4ccc(O)cc4CC4(CC4)N3C(=O)c3ccccc3)cc2)C1 (stereo not drawn) [Compound 14]
3 | 3.85 nM | CC1CCN(CCOc2ccc(C3c4ccc(O)cc4CC4(CC4)N3C(=O)c3ccccc3)cc2)C1 (mixture of isomers) [Compound 16]
4 | 222 nM | CCNCCOc1ccc(C2c3ccc(O)cc3CC3(CC3)N2C(=O)c2ccccc2)cc1 (stereo not drawn) [Compound 21]
5 | 358 nM | CCN1CC(Oc2ccc(C3c4ccc(O)cc4CC4(CC4)N3C(=O)c3ccccc3)cc2)C1 (stereo not drawn) [Compound 1]
6 | 500 nM | CNCCOc1ccc(C2c3ccc(O)cc3CC3(CC3)N2C(=O)c2ccccc2)cc1 (stereo not drawn) [Compound 20]
7 | 744 nM | CN(C)CCOc1ccc(C2c3ccc(O)cc3CC3(CC3)N2C(=O)c2ccccc2)cc1 (stereo not drawn) [Compound 19]
8 | 21 nM | CCN1CCC(CCOc2ccc(C3c4ccc(O)cc4CC4(CC4)N3C(=O)c3ccccc3)cc2)C1 (stereo not drawn) [Compound 13]
9 | 49.4 nM | O=C(c1ccccc1)N1C(c2ccc(OCCN3CCCCCC3)cc2)c2ccc(O)cc2CC12CC2 (stereo not drawn) [Compound 5]
10 | 130 nM | CCCN1CC(Oc2ccc(C3c4ccc(O)cc4CC4(CC4)N3C(=O)c3ccccc3)cc2)C1 (stereo not drawn) [Compound 2]
11 | 23.4 nM | O=C(c1ccccc1)N1C(c2ccc(OCCN3CCCCC3)cc2)c2ccc(O)cc2CC12CC2 (stereo not drawn) [Compound 6]
12 | 58.8 nM | CCN1CCC(Oc2ccc(C3c4ccc(O)cc4CC4(CC4)N3C(=O)c3ccccc3)cc2)C1 (stereo not drawn) [Compound 12]
13 | 4.8 nM | C[C@H]1CCN(CCOc2ccc(C3c4ccc(O)cc4CC4(CC4)N3C(=O)c3ccccc3)cc2)C1 (stereo partly drawn) [Compound 15]

Row | Structure (SMILES) | IC50
14 | CC1=C(c2ccc(O)cc2)[C@H](c2ccc(OCCN3CC[C@@H](C)C3)cc2)Oc2cc(O)ccc21 [OP1074, reference compound] | 0.17 nM

test system: MCF7 breast cancer cells; assay: Crystal violet endpoint assay of MCF7 cellular viability; assay type: cell-based; conditions: 500 nM, in the presence of 1 nM E2, 1 week
Description: A crystal violet endpoint assay is useful for obtaining quantitative information about the relative density of cells adhering to multi-well cluster dishes. The crystal violet dye stains DNA. Upon solubilization, the amount of dye taken up by the monolayer can be quantified in a spectrophotometer or plate reader when the absorbance of each well is read at 570 nm. A crystal violet assay kit to measure cell viability is commercially available (e.g., Abcam, Cambridge, MA). All antagonist treatments were performed in the presence of 1 nM hormone (E2) for 1 week.

Row | Structure (SMILES) | induction of apoptosis (cellular viability)
15 | CCCN1CCC(COc2ccc(C3c4ccc(O)cc4CC4(CC4)N3C(=O)c3ccccc3)cc2)C1 (stereo not drawn) [Compound 14] | appear to induce apoptosis
16 | CCN1CCC(CCOc2ccc(C3c4ccc(O)cc4CC4(CC4)N3C(=O)c3ccccc3)cc2)C1 (stereo not drawn) [Compound 13] | appear to induce apoptosis

test system: MCF7 breast cancer cells; assay: Cellular proliferation of MCF7 breast cancer cells, 150 hours; assay type: cell-based; conditions: 1 nM E2 + 1 μM compound, serum-starved 48 hours
Method: The abilities of exemplary compounds of formula (I) to inhibit the cellular proliferation of MCF7 breast cancer cells were measured. Cells were serum-starved for 48 hours before they were treated with either vehicle (DMSO), 1 nM hormone (estradiol [E2]), or 1 nM E2+1 μM compound in triplicate for 150 hours.

Row | Structure (SMILES) | anti-proliferative activities (fold-change in cell count versus starting cell count)
17 | CCCCN1CCC(COc2ccc(C3c4ccc(O)cc4CC4(CC4)N3C(=O)c3ccccc3)cc2)C1 (stereo not drawn) [Compound 22] | did not enhance anti-proliferative activities compared to compound 14
18 | CCCN1CCC(CCc2ccc(C3c4ccc(O)cc4CC4(CC4)N3C(=O)c3ccccc3)cc2)C1 (stereo not drawn) [Compound 24] | reduced anti-proliferative activities compared to compound 14
19 | CCCN1CCC(CSc2ccc(C3c4ccc(O)cc4CC4(CC4)N3C(=O)c3ccccc3)cc2)C1 (stereo not drawn) [Compound 27] | did not show an appreciable difference in anti-proliferative activities compared to compound 14
20 | O=C(c1ccccc1)N1C(c2ccc(OCC3CCN(CCCF)C3)cc2)c2ccccc2CC12CC2 (stereo not drawn) [Compound 34] | ablated anti-proliferative activities
21 | CCCCCN1CCC(COc2ccc(C3c4ccc(O)cc4CC4(CC4)N3C(=O)c3ccccc3)cc2)C1 (stereo not drawn) [Compound 23] | did not enhance anti-proliferative activities compared to compound 14
22 | O=C(c1ccccc1)N1C(c2ccc(OCC3CCN(CCCF)C3)cc2)c2ccc(O)cc2CC12CC2 (stereo not drawn) [Compound 29] | enhanced anti-proliferative activities
23 | CC1Cc2cc(O)ccc2C(c2ccc(OC[C@H]3CCN(CCCF)C3)cc2)N1C(=O)c1ccccc1 (stereo partly drawn) [35(S)] | modestly reduced the anti-proliferative activities compared compound 29
24 | O=C(c1ccccc1)N1C(c2ccc(CCC3CCN(CCCF)C3)cc2)c2ccc(O)cc2CC12CC2 (stereo not drawn) [Compound 25] | reduced anti-proliferative activities compared to compound 14
25 | CCCN1CC(COc2ccc(C3c4ccc(O)cc4CC4(CC4)N3C(=O)c3ccccc3)cc2)C1 (stereo not drawn) [Compound 4] | improved anti-proliferative activities compared to an ethylazetidine
26 | CC1Cc2cc(O)ccc2C(c2ccc(OCC3CCN(CCCF)C3)cc2)N1C(=O)c1ccccc1 [35(R)] | modestly reduced the anti-proliferative activities compared compound 29
27 | CCCN1CCC(CNc2ccc(C3c4ccc(O)cc4CC4(CC4)N3C(=O)c3ccccc3)cc2)C1 (stereo not drawn) [Compound 26] | reduced anti-proliferative activities compared to compound 14
